Measured values published in PubChem BioAssay AID330 (DTP/NCI, 2004).
“And” between values parts separate entries of the source, which are not always exact repeats. Equal values may be shown once. Toxic doses and inconclusive results are not listed. The calls were made as follows: active = survival T/C of 150% or more; inactive = T/C below 125% in these data. Square brackets hold non-standard residues; d marks the D form. Peptide text beside a SMILES is read from it. ξ: configuration not given here. ξNva = CCCC(N)C(=O)O

Tested on: P388 leukemia ip, CD2F1 mice, survival T/C
Experiment: NCI In Vivo Anticancer Drug Screen. Data for tumor model P388 Leukemia (intraperitoneal) in CD2F1 (CDF1) mice
Conditions: endpoint: median survival time, higher = longer survival
Method in brief: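 Mice carrying the transplanted tumor received test compound or vehicle. Survival was recorded in each group, and the value is the treated-group measurement divided by that of the vehicle-treated control group.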

[1] = dose: 50.0 mg/kg/injection, schedule: Q04DX003 (ip), vehicle: saline with Tween-80
[2] = dose: 100.0 mg/kg/injection, schedule: Q04DX003 (ip), vehicle: saline with Tween-80
[3] = dose: 200.0 mg/kg/injection, schedule: Q04DX003 (ip), vehicle: saline with Tween-80
[4] = dose: 60.0 mg/kg/injection, schedule: Q01DX005 (ip), vehicle: Klucel (hydroxypropylcellulose) (HPC)
[5] = dose: 120.0 mg/kg/injection, schedule: Q01DX005 (ip), vehicle: Klucel (hydroxypropylcellulose) (HPC)
[6] = dose: 240.0 mg/kg/injection, schedule: Q01DX005 (ip), vehicle: Klucel (hydroxypropylcellulose) (HPC)
[7] = dose: 60.0 mg/kg/injection, schedule: Q01DX005 (ip), vehicle: saline with Tween-80
[8] = dose: 120.0 mg/kg/injection, schedule: Q01DX005 (ip), vehicle: saline with Tween-80
[9] = dose: 100.0 mg/kg/injection, schedule: Q04DX003 (ip), vehicle: saline
[10] = dose: 200.0 mg/kg/injection, schedule: Q04DX003 (ip), vehicle: saline
[11] = dose: 400.0 mg/kg/injection, schedule: Q04DX003 (ip), vehicle: saline
[12] = dose: 12.5 mg/kg/injection, schedule: Q01DX009 (ip), vehicle: saline with Tween-80
[13] = dose: 25.0 mg/kg/injection, schedule: Q01DX009 (ip), vehicle: saline with Tween-80
[14] = dose: 50.0 mg/kg/injection, schedule: Q01DX009 (ip), vehicle: saline with Tween-80
[15] = dose: 240.0 mg/kg/injection, schedule: Q01DX005 (ip), vehicle: saline with Tween-80
[16] = dose: 25.0 mg/kg/injection, schedule: Q04DX003 (ip), vehicle: saline with Tween-80

Measured: T/C

COC(=O)C(NC(N)=O)SC (stereo not given)
inactive: [1] 96 % of control | [2] 100 % of control | [3] 99 % of control

O=C(N=c1sc2ccccc2s1)N=c1sc2ccccc2s1
inactive: dose: 30.0 mg/kg/injection, schedule: Q01DX005 (ip), vehicle: Klucel (hydroxypropylcellulose) (HPC) 99 % of control | [4] 86 % of control and 91 % of control | [5] 95 % of control

O=c1[nH]c2ccccc2c(Oc2ccccc2)c1I
inactive: [4] 89 % of control | [5] 92 % of control | [6] 101 % of control

CCCCCCCCCC(O)CCCCCC (stereo not given)
inactive: dose: 88.0 mg/kg/injection, schedule: Q01DX009 (ip), vehicle: other 109 % of control | dose: 132.0 mg/kg/injection, schedule: Q01DX009 (ip), vehicle: other 109 % of control | dose: 200.0 mg/kg/injection, schedule: Q01DX009 (ip), vehicle: other 118 % of control

CCOC(=O)[C](=[N+]=[N-])[Hg][C](=[N+]=[N-])C(=O)OCC
inactive: dose: 1.56 mg/kg/injection, schedule: Q04DX003 (ip), vehicle: saline 100 % of control | dose: 3.12 mg/kg/injection, schedule: Q04DX003 (ip), vehicle: saline 101 % of control | dose: 6.25 mg/kg/injection, schedule: Q04DX003 (ip), vehicle: saline 100 % of control

CCCC(NC(=O)CNC(=O)CN)C(=O)O (stereo not drawn) (H-Gly-Gly-[ξNva]-OH)
inactive: dose: 60.0 mg/kg/injection, schedule: Q01DX005 (ip), vehicle: saline 98 % of control | dose: 120.0 mg/kg/injection, schedule: Q01DX005 (ip), vehicle: saline 106 % of control | dose: 240.0 mg/kg/injection, schedule: Q01DX005 (ip), vehicle: saline 106 % of control

Nc1ncnc2nc(-c3ccc(OCc4ccccc4)cc3)[nH]c12
inactive: dose: 100.0 mg/kg/injection, schedule: Q01DX001 (ip), vehicle: saline 101 % of control | dose: 200.0 mg/kg/injection, schedule: Q01DX001 (ip), vehicle: saline 94 % of control | dose: 400.0 mg/kg/injection, schedule: Q01DX001 (ip), vehicle: saline 98 % of control

COC(=O)Nc1nc2ccc(CCC(=O)c3c(C)oc(C)c3-c3ccc(NC(C)=O)cc3)cc2[nH]1
inactive: [7] 99 % of control | [8] 99 % of control

CC1(C)OC(=O)N=C1c1ccc(F)cc1
inactive: [4] 102 % of control | [5] 107 % of control | [6] 111 % of control

O=C(O)C(=O)O.O=C(O)C(=O)O.OO.OO.[Nb]
inactive: dose: 12.5 mg/kg/injection, schedule: Q01DX009 (ip), vehicle: saline 98 % of control

O=C1C2CCCC1C(c1ccccc1Cl)NC2c1ccccc1Cl (stereo not given)
inactive: [9] 89 % of control | [10] 96 % of control | [11] 94 % of control

COC(=O)c1nc(NN)[nH]c(=O)c1C
inactive: dose: 15.0 mg/kg/injection, schedule: Q01DX005 (ip), vehicle: saline with Tween-80 103 % of control | dose: 30.0 mg/kg/injection, schedule: Q01DX005 (ip), vehicle: saline with Tween-80 98 % of control | [7] 99 % of control and 97 % of control

C/C([O-])=C(/c1nc(-c2ccc([N+](=O)[O-])o2)no1)[n+]1cc(C)ccc1C
inactive: dose: 6.25 mg/kg/injection, schedule: Q01DX009 (ip), vehicle: saline with Tween-80 92 % of control | [12] 94 % of control | [13] 97 % of control | [14] 94 % of control

NCCC(=O)CN
inactive: [9] 104 % of control | [10] 109 % of control | [11] 104 % of control

COC(=O)N1CC2[C@H](O)[C@H](O)C1ON2c1ccccc1 (stereo not given in full)
inactive: [4] 101 % of control | [5] 94 % of control | [6] 93 % of control

CCCOn1nnc2ccccc21
inactive: [2] 99 % of control | [3] 102 % of control | dose: 400.0 mg/kg/injection, schedule: Q04DX003 (ip), vehicle: saline with Tween-80 107 % of control

c1ccc2c(c1)nnn1c3cnccc3nc21
inactive: [12] 111 % of control

O=C1C(=O)N(c2ccc([N+](=O)[O-])cc2)C(=O)N1c1ccc([N+](=O)[O-])cc1
inactive: [7] 112 % of control | [8] 95 % of control | [15] 95 % of control

O=C(O)C(Oc1nc(=S)[nH]c(=S)[nH]1)(c1ccc(Cl)cc1)c1ccc(Cl)cc1
inactive: [7] 103 % of control | [8] 101 % of control | [15] 103 % of control

Cc1cccc(Nc2nc(C)nc3[nH]cc(-c4ccccc4)c23)c1
inactive: dose: 6.25 mg/kg/injection, schedule: Q01DX005 (ip), vehicle: Klucel (hydroxypropylcellulose) (HPC) 91 % of control | dose: 12.5 mg/kg/injection, schedule: Q01DX005 (ip), vehicle: Klucel (hydroxypropylcellulose) (HPC) 90 % of control | dose: 200.0 mg/kg/injection, schedule: Q01DX005 (ip), vehicle: Klucel (hydroxypropylcellulose) (HPC) 88 % of control

COc1cc(C)c(OC)c(C/C=C(\C)CC2(O)C[C@@]3(C)CCC[C@@]3(C)C(=O)C2CC(C)(C)O)c1 (stereo not given in full)
inactive: dose: 5.0 mg/kg/injection, schedule: Q01DX005 (ip), vehicle: saline with Tween-80 92 % of control | dose: 10.0 mg/kg/injection, schedule: Q01DX005 (ip), vehicle: saline with Tween-80 95 % of control | dose: 20.0 mg/kg/injection, schedule: Q01DX005 (ip), vehicle: saline with Tween-80 93 % of control

CC(C)NC1CC2CCCCC2CC1c1ccccc1 (stereo not given)
inactive: dose: 100.0 mg/kg/injection, schedule: Q01DX001 (ip), vehicle: Klucel (hydroxypropylcellulose) (HPC) 93 % of control | dose: 200.0 mg/kg/injection, schedule: Q01DX001 (ip), vehicle: Klucel (hydroxypropylcellulose) (HPC) 93 % of control | dose: 400.0 mg/kg/injection, schedule: Q01DX001 (ip), vehicle: Klucel (hydroxypropylcellulose) (HPC) 88 % of control

CCCCCCCCCCCCCC(C)NCc1ccccc1 (stereo not given)
inactive: [16] 96 % of control | [1] 100 % of control

Cc1ccc(-c2csc3nc(C)cc(=O)n23)cc1
inactive: dose: 100.0 mg/kg/injection, schedule: Q04DX003 (ip), vehicle: Klucel (hydroxypropylcellulose) (HPC) 111 % of control | dose: 200.0 mg/kg/injection, schedule: Q04DX003 (ip), vehicle: Klucel (hydroxypropylcellulose) (HPC) 105 % of control | dose: 400.0 mg/kg/injection, schedule: Q04DX003 (ip), vehicle: Klucel (hydroxypropylcellulose) (HPC) 106 % of control

CN(C)S(=O)(=O)c1ncnc2nc[nH]c12
inactive: dose: 100.0 mg/kg/injection, schedule: Q01DX009 (ip), vehicle: saline with Tween-80 90 % of control | dose: 100.0 mg/kg/injection, schedule: Q04DX003 (ip), vehicle: saline sonified 100 % of control | dose: 200.0 mg/kg/injection, schedule: Q01DX009 (ip), vehicle: saline with Tween-80 90 % of control | dose: 200.0 mg/kg/injection, schedule: Q04DX003 (ip), vehicle: saline sonified 91 % of control | dose: 400.0 mg/kg/injection, schedule: Q01DX009 (ip), vehicle: saline with Tween-80 100 % of control | dose: 400.0 mg/kg/injection, schedule: Q04DX003 (ip), vehicle: saline sonified 91 % of control

c1cc(Cc2ccsc2)cs1
inactive: [7] 104 % of control | [8] 104 % of control | [15] 106 % of control

O=C(NCCCCCCNC(=O)C1CCCN1C(=O)OCc1ccccc1)C1CCCN1C(=O)OCc1ccccc1 (stereo not given)
inactive: [4] 100 % of control | [5] 98 % of control | [6] 100 % of control

CC(C)(C)NSc1nc2ccccc2s1
inactive: [12] 109 % of control | dose: 12.5 mg/kg/injection, schedule: Q04DX003 (ip), vehicle: saline with Tween-80 100 % of control | [13] 100 % of control | [16] 95 % of control | [14] 100 % of control | [1] 100 % of control and 87 % of control
